{
  "source": "patent US5037739A",
  "about": "“N-acetylmannosamine dehydrogenase, process for its production, method for quantitatively analyzing N-acetylmannosamine or sialic acid, and kit for the quantitative analysis” (Noda Institute for Scientific Research, priority 1986, dated 1991)",
  "key": {"[1]": {"test_system": "Flavobacterium sp. No. 141-8", "experiment": "Growth resistance of the producing strain (penicillin, sodium chloride)", "type": "cell-based", "source_text": "(1) Penicillin resistance: Growth even at 100 units/ml.\n(2) Sodium chloride resistance: No growth above 2%."}, "[2]": {"target": "T1, N-AMDH (Flavobacterium sp., UniProt P22441)", "T1 construct": "N-AMDH was accumulated in the bacterial cells; endogenous in cells; host or cells: Flavobacterium sp; No. 141-8 (natural producer isolated from soil); enzyme purified from the disrupted bacterial cells", "T1 sequence (P22441 2-271 limits assumed)": "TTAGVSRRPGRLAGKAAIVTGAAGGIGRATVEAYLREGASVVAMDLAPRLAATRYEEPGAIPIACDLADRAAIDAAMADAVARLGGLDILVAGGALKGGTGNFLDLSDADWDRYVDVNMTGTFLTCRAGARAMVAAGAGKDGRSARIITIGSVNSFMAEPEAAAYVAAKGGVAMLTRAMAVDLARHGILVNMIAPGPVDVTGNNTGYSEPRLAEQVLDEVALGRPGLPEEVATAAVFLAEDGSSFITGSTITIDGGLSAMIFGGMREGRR", "experiment": "N-AMDH enzymatic activity in solutions containing metallic ions and inhibitors", "type": "biochemical, Flavobacterium sp. No. 141-8", "conditions": "for remaining activity at 2000 µM: read-out: Residual activity (%)", "protocol": "The table presented above illustrates the enzymatic activity of N-AMDH measured in solutions containing various metallic ions and inhibitors at a concentration of 2 mM. There is known no substance making a particular contribution to its activation and stabilization.\n(§1) To 1.8 ml of 0.05M tris-hydrochloric acid buffer (pH 8.2) is added 0.1 ml of 60 mM NAD solution. After keeping the mixture at 37° C. for 10 minutes, 10 microliters of enzyme solution is added, and then 0.1 ml of 0.3M N-AM is added. By homogenizing the mixture, the reaction is started. The reaction mixture is immediately transferred into a light absorbance measurement cell (light path 1 cm) kept at 37° C., and absorbance is measured over a period of 5 minutes (if necessary, over a longer period of time) at intervals of one minute at a wavelength of 340 nm. A quantity of enzyme capable of forming 1 micromole of NADH in one minute is taken as one unit."}, "[3]": {"target": "T1, N-AMDH", "experiment": "Action and substrate-specificity of N-AMDH (substrates and electron acceptors)", "type": "biochemical, Flavobacterium sp. No. 141-8", "conditions": "for Action of N-AMDH upon the sugar as substrate: in the presence of NAD", "protocol": "In the presence of water, N-acetylmannosaminolactone is spontaneously hydrolyzed to form N-acetylmannosaminic acid. Accordingly, the reaction is substantially irreversible.\nas §1"}, "[4]": {"experiment": "pH stability and heat stability (inactivation conditions) of N-AMDH", "type": "physicochemical, Flavobacterium sp. No. 141-8", "protocol": "The buffer solutions used there are potassium phosphate buffer, tris-hydrochloric acid buffer and glycine-sodium hydroxide buffer.\nAt temperatures exceeding 45° C., it rapidly loses its activity. When heat treated at 45° C. for 10 minutes, it is stable at a pH of 8.5-9.5, while it is particularly instable at a pH value of 7 or below."}, "[5]": {"experiment": "Acrylamide gel isoelectric focusing of N-AMDH", "type": "physicochemical, Flavobacterium sp. No. 141-8", "source_text": "As measured by acrylamide gel isoelectric focusing, its isoelectric point is 4.9."}, "[6]": {"conditions": "N-AMDH activity with metallic ion or inhibitor at 2 mM, None = 100"}, "[7]": {"conditions": "heat treated at 45° C. for 10 minutes"}},
  "note": "Like-named read-outs stand apart in the source and are kept apart here.",
  "data": [
    {"compound": "CC1(C)S[C@@H]2[C@H](NC(=O)Cc3ccccc3)C(=O)N2[C@H]1C(=O)O", "note": "[Penicillin]", "values": [
      {"measurement": "Penicillin resistance: concentration at which the strain still grows", "setting": "[1]", "value": "≥ 100", "unit": "units/ml"}
    ]},
    {"compound": "c1ccc(-c2ccccn2)nc1", "note": "[α,α'-Dipyridyl]", "values": [
      {"measurement": "remaining activity at 2000 µM", "setting": "[2]; [6]", "value": 97, "unit": "%"}
    ]},
    {"compound": "c1cnc2c(c1)ccc1cccnc12", "note": "[o-Phenanthroline]", "values": [
      {"measurement": "remaining activity at 2000 µM", "setting": "[2]; [6]", "value": 87, "unit": "%"}
    ]},
    {"compound": "CC(=O)N[C@H]1C(O)O[C@H](CO)[C@H](O)[C@@H]1O", "note": "(stereo partly shown) [N-acetylgalactosamine]", "values": [
      {"measurement": "Action of N-AMDH upon the sugar as substrate", "setting": "[3]", "value": "hardly acts or does not act at all"}
    ]},
    {"compound": "NC(=O)CI", "note": "[Iodoacetamide]", "values": [
      {"measurement": "remaining activity at 2000 µM", "setting": "[2]; [6]", "value": 87, "unit": "%"}
    ]},
    {"compound": "CC(=O)N[C@@H]1C(O)O[C@H](CO)[C@@H](O)[C@@H]1O", "note": "(stereo partly shown) [N-AM, N-acetylmannosamine]", "values": [
      {"measurement": "Action of N-AMDH upon the sugar as substrate", "setting": "[3]", "value": "oxidizes N-AM into N-acetylmannoaminolactone"}
    ]},
    {"compound": "O=C1C(Cl)=CC(=Nc2ccc(O)cc2)C=C1Cl", "note": "[2,6-dichlorophenol indophenol]", "values": [
      {"measurement": "Utilization as electron acceptor by N-AMDH", "setting": "[3]", "value": "hardly utilizes"}
    ]},
    {"compound": "CC(=O)N[C@H]1C(O)O[C@H](CO)[C@@H](O)[C@@H]1O", "note": "(stereo partly shown) [N-acetylglucosamine]", "values": [
      {"measurement": "Action of N-AMDH upon the sugar as substrate", "setting": "[3]", "value": "hardly acts or does not act at all"}
    ]},
    {"compound": "Oc1cccc2cccnc12", "note": "[8-Hydroxyquinoline]", "values": [
      {"measurement": "Residual activity (%)", "setting": "[2]", "value": 95, "unit": "%"}
    ]},
    {"compound": "O=C(O)CN(CCN(CC(=O)O)CC(=O)O)CC(=O)O", "note": "[EDTA]", "values": [
      {"measurement": "remaining activity at 2000 µM", "setting": "[2]", "value": 89, "unit": "%"}
    ]},
    {"compound": "[N-]=[N+]=[N-].[Na+]", "note": "[NaN3]", "values": [
      {"measurement": "Residual activity (%)", "setting": "[2]; [6]", "value": 83, "unit": "%"}
    ]},
    {"compound": "O=C(O)c1cc[c]([Hg][Cl])cc1", "note": "[PCMB]", "values": [
      {"measurement": "Residual activity (%)", "setting": "[2]; [6]", "value": 95, "unit": "%"}
    ]},
    {"compound": "CCCCCCCCCCCCOS(=O)(=O)O", "note": "[SDS]", "values": [
      {"measurement": "remaining activity at 2000 µM", "setting": "[2]; [6]", "value": 18, "unit": "%"}
    ]},
    {"compound": "Nc1ncnc2c1ncn2[C@@H]1O[C@H](COP(=O)(O)O)[C@@H](O)[C@H]1O", "note": "[5'-AMP]", "values": [
      {"measurement": "remaining activity at 2000 µM", "setting": "[2]; [6]", "value": 76, "unit": "%"}
    ]},
    {"compound": "O=S(=O)([O-])[O-].[Zn+2]", "note": "[ZnSO4]", "values": [
      {"measurement": "Residual activity (%)", "setting": "[2]; [6]", "value": 71, "unit": "%"}
    ]},
    {"compound": "O=S(=O)([O-])[O-].[Ni+2]", "note": "[NiSO4]", "values": [
      {"measurement": "Residual activity (%)", "setting": "[2]; [6]", "value": 69, "unit": "%"}
    ]},
    {"compound": "O=S(=O)([O-])[O-].[Cu+2]", "note": "[CuSO4]", "values": [
      {"measurement": "Residual activity (%)", "setting": "[2]; [6]", "value": 79, "unit": "%"}
    ]},
    {"compound": "N-acetylmannosamine dehydrogenase [N-AMDH]", "values": [
      {"measurement": "Temperature up to which activity is kept stable on heat treatment", "setting": "[4]; FIG. 4, heat treated for minutes", "value": "≤ 45", "unit": "°C"},
      {"measurement": "pH at which it is particularly instable when heat treated", "setting": "[4]; [7]", "value": "≤ 7"},
      {"measurement": "pH at which it is stable when heat treated", "setting": "[4]; [7]", "value": "8.5-9.5"},
      {"measurement": "Isoelectric point", "setting": "[5]", "value": 4.9}
    ]},
    {"compound": "O=C(CO)N[C@@H]1C(O)O[C@H](CO)[C@@H](O)[C@@H]1O", "note": "(stereo partly shown) [N-glycolylmannosamine]", "values": [
      {"measurement": "Action of N-AMDH upon the sugar as substrate", "setting": "[3]", "value": "acts upon N-glycolylmannosamine in the same manner as above"}
    ]},
    {"compound": "NC(=O)c1ccc[n+]([C@@H]2O[C@H](COP(=O)([O-])OP(=O)(O)OC[C@H]3O[C@@H](n4cnc5c(N)ncnc54)[C@H](OP(=O)(O)O)[C@@H]3O)[C@@H](O)[C@H]2O)c1", "note": "[NADP, nicotinamide adenine dinucleotide phosphate]", "values": [
      {"measurement": "Utilization as electron acceptor by N-AMDH", "setting": "[3]", "value": "hardly utilizes"}
    ]},
    {"compound": "[Cl-].[Na+]", "note": "[Sodium chloride]", "values": [
      {"measurement": "Sodium chloride resistance: concentration above which there is no growth", "setting": "[1]", "value": "above 2%"}
    ]},
    {"compound": "[Cl][Hg][Cl]", "note": "[HgCl2]", "values": [
      {"measurement": "Residual activity (%)", "setting": "[2]; [6]", "value": 6, "unit": "%"}
    ]}
  ]
}
